From patent publication US9770445B2, “Sulfoximine substituted 5-fluoro-N-(pyridin-2-yl)pyridin-2-amine derivatives and their use as CDK9 kinase inhibitors” (BAYER PHARMA AKTIENGESELLSCHAFT, priority 2013, dated 2017)

How the values were obtained:
CDK9/CycT1 = target: T1, CDK9/CycT1 (Homo sapiens, UniProt P50750); experiment: CDK9/CycT1 kinase assay (Method 1a, TR-FRET); type: biochemical; conditions: for IC50: Method 1a, 10 μM ATP; for Selectivity CDK9 over CDK2: IC50 (CDK2)/IC50 (CDK9): ratio of Method 2 to Method 1a values
T1 construct: Recombinant full-length His-tagged human CDK9 and CycT1; His; purchased Invitrogen PV4131; host or cells: insect cells
T1 sequence (P50750 whole entry): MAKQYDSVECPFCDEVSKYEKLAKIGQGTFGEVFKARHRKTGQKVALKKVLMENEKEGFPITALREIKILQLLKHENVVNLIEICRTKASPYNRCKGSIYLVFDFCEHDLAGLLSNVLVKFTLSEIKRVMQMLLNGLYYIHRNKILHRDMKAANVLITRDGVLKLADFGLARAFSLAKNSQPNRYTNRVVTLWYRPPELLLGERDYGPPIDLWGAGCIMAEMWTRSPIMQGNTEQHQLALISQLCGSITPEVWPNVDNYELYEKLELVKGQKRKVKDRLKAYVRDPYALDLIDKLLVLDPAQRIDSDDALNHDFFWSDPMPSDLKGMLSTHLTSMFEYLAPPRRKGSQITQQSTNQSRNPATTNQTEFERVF
T1 sequence (O60563 whole entry partner): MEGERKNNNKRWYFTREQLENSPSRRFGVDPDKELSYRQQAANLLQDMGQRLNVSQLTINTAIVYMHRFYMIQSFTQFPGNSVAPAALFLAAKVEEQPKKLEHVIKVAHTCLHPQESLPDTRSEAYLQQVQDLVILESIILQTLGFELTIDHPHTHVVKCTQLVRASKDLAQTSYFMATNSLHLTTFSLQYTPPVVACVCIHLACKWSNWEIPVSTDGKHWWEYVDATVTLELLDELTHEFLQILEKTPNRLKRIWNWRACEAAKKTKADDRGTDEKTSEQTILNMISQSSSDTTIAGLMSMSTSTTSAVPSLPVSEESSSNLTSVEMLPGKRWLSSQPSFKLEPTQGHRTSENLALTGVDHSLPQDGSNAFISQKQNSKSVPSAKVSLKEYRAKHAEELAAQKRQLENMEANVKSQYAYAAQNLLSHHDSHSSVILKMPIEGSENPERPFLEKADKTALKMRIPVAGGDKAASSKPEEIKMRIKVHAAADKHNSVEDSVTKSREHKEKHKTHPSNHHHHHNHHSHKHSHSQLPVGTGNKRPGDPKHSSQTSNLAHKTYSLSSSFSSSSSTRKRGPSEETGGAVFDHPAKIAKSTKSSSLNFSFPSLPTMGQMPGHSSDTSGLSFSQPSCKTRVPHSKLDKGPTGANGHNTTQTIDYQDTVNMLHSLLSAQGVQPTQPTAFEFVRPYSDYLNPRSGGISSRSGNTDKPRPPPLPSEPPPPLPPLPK
Text: 1a. CDK9/CyeT1 Kinase Assay:
CDK9/CycT1-inhibitory activity of compounds of the present invention was quantified employing the CDK9/CycT1 TR-FRET assay as described in the following paragraphs:
Recombinant full-length His-tagged human CDK9 and CycT1, expressed in insect cells and purified by Ni-NTA affinity chromatography, were purchased from Invitrogen (Cat. No PV4131). As substrate for the kinase reaction biotinylated peptide biotin-Ttds-YISPLKSPYKISEG (C-terminus in amid form) was used which can be purchased e.g. form the company JERINI Peptide Technologies (Berlin, Germany). For the assay 50 nl of a 100 fold concentrated solution of the test compound in DMSO was pipetted into a black low volume 384 well microtiter plate (Greiner Bio-One, Frickenhausen, Germany), 2 μl of a solution of CDK9/CycT1 in aqueous assay buffer [50 mM Tris/HCl pH 8.0, 10 mM MgCl2, 1.0 mM dithiothreitol, 0.1 mM sodium ortho-vanadate, 0.01% (v/v) Nonidet-P40 (Sigma)] were added and the mixture was incubated for 15 min at 22° C. to allow pre-binding of the test compounds to the enzyme before the start of the kinase reaction. Then the kinase reaction was started by the addition of 3 μl of a solution of adenosine-tri-phosphate (ATP, 16.7 μM=>final conc. in the 5 μl assay volume is 10 μM) and substrate (1.67 μM=>final conc. in the 5 μl assay volume is 1 μM) in assay buffer and the resulting mixture was incubated for a reaction time of 25 min at 22° C. The concentration of CDK9/CycT1 was adjusted depending of the activity of the enzyme lot and was chosen appropriate to have the assay in the linear range, typical concentrations were in the range of 1 μg/mL. The reaction was stopped by the addition of 5 μl of a solution of TR-FRET detection reagents (0.2 μM streptavidine-XL665 [Cisbio Bioassays, Codolet, France] and 1 nM anti-RB(pSer807/pSer811)-antibody from BD Pharmingen [#558389] and 1.2 nM LANCE EU-W1024 labeled anti-mouse IgG antibody [Perkin-Elmer, product no. AD0077]) in an aqueous EDTA-solution (100 mM EDTA, 0.2% (w/v) bovine serum albumin in 100 mM HEPES/NaOH pH 7.0).
The resulting mixture was incubated 1 h at 22° C. to allow the formation of complex between the phosphorylated biotinylated peptide and the detection reagents. Subsequently the amount of phosphorylated substrate was evaluated by measurement of the resonance energy transfer from the Eu-chelate to the streptavidine-XL. Therefore, the fluorescence emissions at 620 nm and 665 nm after excitation at 350 nm was measured in a HTRF reader, e.g. a Rubystar (BMG Labtechnologies, Offenburg, Germany) or a Viewlux (Perkin-Elmer). The ratio of the emissions at 665 nm and at […] was taken as the measure for the amount of phosphorylated substrate. The data were normalised (enzyme reaction without inhibitor=0% inhibition, all other assay components but no enzyme=100% inhibition).

[1] = tested on: HeLa, human cervical tumour cells; experiment: Proliferation assay, HeLa (crystal violet); type: cell-based; conditions: 96 h, 4 days, read-out: Inhibition of HeLa cell proliferation
Experimental: (§1) Cultivated tumour cells (HeLa, human cervical tumour cells, ATCC CCL-2; NCI-H460, human non-small cell lung carcinoma cells, ATCC HTB-177; A2780, human ovarian carcinoma cells, ECACC #93112519; DU 145, hormone-independent human prostate carcinoma cells, ATCC HTB-81; HeLa-MaTu-ADR, multidrug-resistant human cervical carcinoma cells, EPO-GmbH Berlin; Caco-2, human colorectal carcinoma cells, ATCC HTB-37; B16F10, mouse melanoma cells, ATCC CRL-6475) were plated at a density of 5,000 cells/well (DU145, HeLa-MaTu-ADR), 3,000 cells/well (NCI-H460, HeLa), 2,500 cells/well (A2780), 1,500 cells/well (Caco-2), or 1,000 cells/well (B16F10) in a 96-well multititer plate in 200 μL of their respective growth medium supplemented 10% fetal calf serum. After 24 hours, the cells of one plate (zero-point plate) were stained with crystal violet (see below), while the medium of the other plates was replaced by fresh culture medium (200 μl), to which the test substances were added in various concentrations (0 μM, as well as in the range of 0.001-10 μM; the final concentration of the solvent dimethyl sulfoxide was 0.5%). The cells were incubated for 4 days in the presence of test substances. Cell proliferation was determined by staining the cells with crystal violet: the cells were fixed by adding 20 μl/measuring point of an 11% glutaric aldehyde solution for 15 minutes at room temperature. After three washing cycles of the fixed cells with water, the plates were dried at room temperature. The cells were stained by adding 100 μl/measuring point of a 0.1% crystal violet solution (pH 3.0). After three washing cycles of the stained cells with water, the plates were dried at room temperature. The dye was dissolved by adding 100 μl/measuring point of a 10% acetic acid solution. The extinction was determined by photometry at a wavelength of 595 nm. The change of cell number, in percent, was calculated by normalization of the measured values to the extinction values of the zero-point plate (=0%) and the extinction of the untreated (0 μm) cells (=100%). The IC50 values (inhibitory concentration at 50% of maximal effect) were determined by means of a 4 parameter fit.

[2] = tested on: HeLa-MaTu-ADR, multidrug-resistant human cervical carcinoma cells; experiment: Proliferation assay, HeLa-MaTu-ADR (crystal violet); type: cell-based; conditions: 96 h, 4 days, read-out: Inhibition of HeLa-MaTu-ADR cell proliferation
Experimental: as §1

[3] = tested on: NCI-H460, human non-small cell lung carcinoma cells; experiment: Proliferation assay, NCI-H460 (crystal violet); type: cell-based; conditions: 96 h, NCI-H460, 4 days, read-out: Inhibition of NCI-H460 cell proliferation
Experimental: as §1

[4] = tested on: DU 145, hormone-independent human prostate carcinoma cells; experiment: Proliferation assay, DU145 (crystal violet); type: cell-based; conditions: DU-145, 96 h, DU145, 4 days, read-out: Inhibition of DU145 cell proliferation
Experimental: as §1

[5] = tested on: Caco-2, human colorectal carcinoma cells; experiment: Proliferation assay, Caco-2 (crystal violet); type: cell-based; conditions: 96 h, Caco-2, 4 days, read-out: Inhibition of Caco-2 cell proliferation
Experimental: as §1

[6] = tested on: B16F10, mouse melanoma cells; experiment: Proliferation assay, B16F10 (crystal violet); type: cell-based; conditions: B16-F10, 96 h, B16F10, 4 days, read-out: Inhibition of B16F10 cell proliferation
Experimental: as §1

[7] = tested on: A2780, human ovarian carcinoma cells; experiment: Proliferation assay, A2780 (crystal violet); type: cell-based; conditions: 96 h, A2780, 4 days, read-out: Inhibition of A2780 cell proliferation
Experimental: as §1, with “The IC50 values (inhibitory concentration at 50% of maximal effect) were determined by means of a 4 parameter fit.” left out

IC50 (CDK9/CycT1) | Selectivity CDK9 over CDK2: IC50 (CDK2)/IC50 (CDK9) (CDK9/CycT1) | IC50 [1] | IC50 [2] | IC50 [3] | IC50 [4] | IC50 [5] | IC50 [6] | IC50 [7] | Compound
4 nM | 11 | 30 nM | 30 nM | 36 nM | 33 nM | 34 nM | 41 nM | 11 nM | CS(=N)(=O)Cc1cc(F)nc(Nc2cc(-c3ccc(F)c4ccoc34)c(F)cn2)c1 (racemic) [Example 1, (rac)-5-Fluoro-4-(4-fluoro-1-benzofuran-7-yl)-N-{6-fluoro-4-[(S-methylsulfonimidoyl)methyl]pyridin-2-yl}pyridin-2-amine]
7 nM | 54 | 31 nM | 30 nM | 32 nM | 32 nM | 35 nM | 42 nM | – | CS(=O)(Cc1cc(F)nc(Nc2cc(-c3ccc(F)c4ccoc34)c(F)cn2)c1)=NC(=O)C(F)(F)F (racemic) [Example 2, (rac)-2,2,2-Trifluoro-N-{[(2-fluoro-6-{[5-fluoro-4-(4-fluoro-1-benzofuran-7-yl)pyridin-2-yl]amino}pyridin-4-yl)methyl](methyl)oxido-λ^6-sulfanylidene}acetamide]
19 nM | 5.8 | 31 nM | 30 nM | 36 nM | 37 nM | 40 nM | 44 nM | – | CS(=O)(Cc1cc(Nc2cc(-c3ccc(F)c4ccoc34)c(F)cn2)nc(C(F)(F)F)c1)=NC(=O)C(F)(F)F (racemic) [Example 4, (rac)-2,2,2-Trifluoro-N-[{[2-{[5-fluoro-4-(4-fluoro-1-benzofuran-7-yl)pyridin-2-yl]amino}-6-(trifluoromethyl)pyridin-4-yl]methyl}(methyl)oxido-λ^6-sulfanylidene]acetamide]
4.9 nM | 110 | 42 nM | 52 nM | 46 nM | 42 nM | 58 nM | 88 nM | – | CS(=O)(Cc1ccnc(Nc2cc(-c3ccc(F)c4ccoc34)c(F)cn2)c1)=NC(=O)C(F)(F)F (racemic) [Example 6, (rac)-2,2,2-Trifluoro-N-{[(2-{[5-fluoro-4-(4-fluoro-1-benzofuran-7-yl)pyridin-2-yl]amino}pyridin-4-yl)methyl](methyl)oxido-λ^6-sulfanylidene}acetamide]
2.1 nM | 19 | 11 nM | 9.1 nM | 33 nM | 14 nM | 14 nM | 17 nM | – | Cc1cc(CS(C)(=N)=O)cc(Nc2cc(-c3ccc(F)c4ccoc34)c(F)cn2)n1 (racemic) [Example 7, (rac)-5-Fluoro-4-(4-fluoro-1-benzofuran-7-yl)-N-{6-methyl-4-[(S-methylsulfonimidoyl)-methyl]pyridin-2-yl}pyridin-2-amine]
– | – | 7.6 nM | 8.8 nM | 35 nM | 11 nM | 9.4 nM | 32 nM | – | CCc1cc(CS(C)(=N)=O)cc(Nc2cc(-c3ccc(F)c4ccoc34)c(F)cn2)n1 (racemic) [Example 8, (rac)-N-{6-Ethyl-4-[(S-methylsulfonimidoyl)methyl]pyridin-2-yl}-5-fluoro-4-(4-fluoro-1-benzofuran-7-yl)pyridin-2-amine]
2.6 nM | 56 | – | – | – | – | – | – | – | CS(=O)(Cc1ccnc(Nc2cc(-c3ccc(F)c4ccoc34)c(F)cn2)c1)=NC#N (racemic) [Example 9, (rac)-{[(2-{[5-fluoro-4-(4-fluoro-1-benzofuran-7-yl)pyridin-2-yl]amino}pyridin-4-yl)methyl](methyl)oxido-λ^6-sulfanylidene}cyanamide]
2.7 nM | 61 | – | – | – | – | – | – | – | CC(=O)N=S(C)(=O)Cc1ccnc(Nc2cc(-c3ccc(F)c4ccoc34)c(F)cn2)c1 (racemic) [Example 10, (rac)-N-{[(2-{[5-fluoro-4-(4-fluoro-1-benzofuran-7-yl)pyridin-2-yl]amino}pyridin-4-yl)methyl](methyl)oxido-λ^6-sulfanylidene}acetamide]
3.1 nM | 45 | – | – | – | – | – | – | – | CCOC(=O)N=S(C)(=O)Cc1ccnc(Nc2cc(-c3ccc(F)c4ccoc34)c(F)cn2)c1 (racemic) [Example 11, (rac)-Ethyl {[(2-{[5-fluoro-4-(4-fluoro-1-benzofuran-7-yl)pyridin-2-yl]amino}pyridin-4-yl)methyl](methyl)oxido-λ^6-sulfanylidene}carbamate]
2.6 nM | 44 | – | – | – | – | – | – | – | CCNC(=O)N=S(C)(=O)Cc1ccnc(Nc2cc(-c3ccc(F)c4ccoc34)c(F)cn2)c1 (racemic) [Example 12, (rac)-1-Ethyl-3-{[(2-{[5-fluoro-4-(4-fluoro-1-benzofuran-7-yl)pyridin-2-yl]amino}pyridin-4-yl)methyl](methyl)oxido-λ^6-sulfanylidene}urea]
2.6 nM | 108 | – | – | – | – | – | – | – | CS(=O)(Cc1ccnc(Nc2cc(-c3ccc(F)c4ccoc34)c(F)cn2)c1)=NC(=O)NCC(F)(F)F (racemic) [Example 13, (rac)-1-{[(2-{[5-Fluoro-4-(4-fluoro-1-benzofuran-7-yl)pyridin-2-yl]amino}pyridin-4-yl)methyl](methyl)oxido-λ^6-sulfanylidene}-3-(2,2,2-trifluoroethyl)urea]
